Experimental data taken from patent publication US20220411847A1, “GLUCOSE/GALACTOSE BIOSENSORS AND METHODS OF USING SAME” (Duke University, priority 2015, published 2022).

Assays:
[1] = Fluorescence emission response to ligand binding; parameters: key to Response Intensity^c: +, increases in response to ligand; —: decreases; 0, no change in the glucose titration; key to Response Shape^b: m, monochromatic; d, dichromatic (i.e. spectral shape changes); 0, no change in the glucose titration; conditions: for Response Intensity^c / Response Shape^b: glucose titration, Nanodrop3300, room temperature
Procedure: (§1) The titration series were mixed with GGBP183C⋅acrylodan or BD_SM4⋅acrylodan conjugates in 384-well microtiter plates. The temperature dependence of the titrations was measured in a real-time PCR machine (Roche LightCycler 480) by determining the ratio of fluorescence emission intensities at 488, 510, and 580 nm (excitation at 440 nm) as a function of temperature (290-370K). Temperatures were advanced in 1K steps. At each temperature data was collected for at 1-second intervals for 60 seconds at which point the signal had relaxed to a steady value associated with the new temperature. Collection times were adjusted to minimize photobleaching (which was not detectable under these experimental conditions). Data reduction software was developed to convert these observations into time-independent datasets that record fluorescence as a function of temperature for each well and associate wells with their concentration of titrant and additive. Management tools were developed to maintain a database of titrations and their analyses.
(§2) In addition to the Roche LightCycler, which has a limited choice of emission wavelengths, data for selected mutants also was measured at room temperature on a Nanodrop3300 (Thermo Scientific) fluorimeter, which records full emission spectra. Emission intensities at a particular wavelength were extracted by integration of the spectral emission intensities over a 20-nm interval centered on that wavelength.

[2] = Isothermal glucose titrations from fluorescent landscapes (Roche LightCycler); assay type: binding
[3] = Galactose titration at room temperature on Nanodrop3300 fluorimeter; assay type: binding; conditions: ^e noisy data
Procedure: as §2
(§3) Signals S (either single-wavelength emission intensities, LT, or ratios of intensities at two wavelengths, Rig) were fit to ligand-binding isotherms:
(§4) where [L] is the ligand concentration and Kd the dissociation constant corresponding to ^appKd or ^trueKd for fits to R12 (weighted by the relative contributions of ^satβ at the two different wavelengths) and Iλ respectively. For a given isothermal titration, values for ^appKd and ^true Kd were obtained using a non-linear fitting algorithm in which these two parameters were simultaneously fit to the three experimental binding isotherms using equations 29 and 30, with the two monochromatic isotherms sharing the same ^trueKd value. Three separate pairs of ^apoβ and ^satβ were fit in this procedure.

[4] = Glucose titration at room temperature on Nanodrop3300 fluorimeter; assay type: binding
Procedure: as §2, §3, §4

[5] = Galactose affinities of the mutants that bind glucose (Roche LightCycler); assay type: binding; conditions: trueKd at 25° C., 183C acrylodan conjugates, read-out: Kd^298K(galactose)/mM
Text: (§5) Analysis of mutant affinity values: Isothermal glucose titrations were extracted from the fluorescent landscape or emission datasets as described above. Monochromatic emission intensities Iλ. (these intensities correspond to a bandpass intensity recorded with a physical filter in the case of the Roche LightCycler) were fit to
(§6) where ^apoIλ2 ^apoIλ2 and ^satIλ2^satIλ2 are the emission intensities of the monochromatic signal at wavelength λ2λ2 of the ligand-free and ligand-bound protein, respectively. Equation 28 illustrates that the ^appKd ^appKd values obtained by fits of 25 to ratiometric signals are wavelength dependent. To obtain wavelength-independent values needed for comparison of mutant proteins, it is necessary to simultaneously fit ^appKd ^appKd to the ratiometric signal and ^trueKd ^trueKd to the two monochromatic signals. For a given isothermal titration, values for ^appKd ^appKd and ^trueKd ^trueKd were obtained using a non-linear fitting algorithm in which these two parameters were simultaneously fit to the three experimental binding isotherms using equations 23 and 27, with the two monochromatic isotherms sharing the same ^trueKd ^trueKd value. Three separate pairs of linear ^apoβ ^apoβ and ^satβ ^satβ baselines were fit in this procedure. TABLES 1-5 record the ^trueKd ^trueKd values at 25° C., obtained by analysis of Roche LightCycler data in 488 nm and 510 nm channels. The uncertainty of the fit (‘error’) was obtained using a boot-strapping technique in which 37% of the data was replicated. In all cases, no binding was recorded if one of ^appKd ^appKd or ^trueKd ^trueKd exceeded 200 mM. The glucose constant of GGBP183 C-acrylodan is 4.21±0.08 mM at 25° C.
The galactose affinities for those mutants that bind glucose were also determined.

[6] = Thermal denaturation followed by fluorescence ratio, two-state fit; assay type: physicochemical; conditions: for Tm/K: thermal stability of the 183C acrylodan conjugate mutant
Procedure: as §1
Fits of these equation systems to experimental observations such as shown in FIG. 5 require good initial estimates of the parameters. These can then be refined using multi-dimensional conjugate gradient methods. To obtain local fits for protein thermostability in the absence of ligand we solve
This gives excellent fits (FIG. 7).

[7] = Isothermal glucose titrations from fluorescent landscapes (Roche LightCycler); assay type: binding; remark: listed apart in the source
Procedure: as §1
The response of acrylodan to glucose binding was separated from the effects of thermal denaturation by extracting binding isotherms within the temperature range where the apo-protein remains >99% folded (T<320 K; FIG. 7). Within this temperature range, binding isotherms were constructed by extracting fluorescence values across different wells, each containing different glucose concentrations, at a given temperature, and fit individually with high accuracy to isotherms (FIG. 8):
using linear baselines which vary individually in accordance with the tilt of the S, S1, and S2 baseplanes that correspond the saturated glucose complex. The individually fit Kd(T) values were converted into ΔGb(T) and fit to the Gibbs-Helmholtz equation 9 (FIG. 9).
as §5, §6

[8] = Ca2+ binding followed through thermal stability shifts in the absence of glucose; conditions: 37° C.
Text: GGBP binds Ca^2+ at a location remote from glucose (FIG. 1). The binding of Ca^2+ was investigated in the absence of glucose (FIG. 12). […] Nevertheless, Ca^2+ binding can be followed through its effect on protein stability (FIG. 13). […] However, at elevated concentrations, this stabilization effect levels off and addition of Ca^2+ becomes destabilizing. […] These effects can be modeled accurately by a fit of the ligand- and temperature-dependent free energy of stability for Ca^2+ (Judge et al. Diabetes Technol. Thera. 2011, 13, 309-317; Layton et al. Biochemistry 2010, 49, 10831-10841). The individual terms are cast in terms of T and [Ca^2+] using equations 4-9. However, rather than fitting fluorescent landscape data directly using 1, Tm and ΔHu, values are extracted at each Ca^2+ concentration using 16 and 17, and fit to the equation system by determining the root of 19 to obtain the calculated Tm value.

[9] = 37° C., mutations in GGBP183C⋅acrylodan, read-out: glucose Kd values at 37° C.
[10] = apparent, ratiometric signal at the listed wavelength pair, read-out: Affinities (mM)^d Galactose ^appKd
[11] = from monochromatic signals, read-out: Affinities (mM)^d Galactose ^trueKd
[12] = apparent, ratiometric signal at the listed wavelength pair, read-out: Affinities (mM)^d Glucose aPPKa
[13] = from monochromatic signals, read-out: Affinities (mM)^d Glucose trueKa
[14] = trueKd at 25° C., 183C acrylodan conjugates, LightCycler 488 nm and 510 nm channels, ± = bootstrap uncertainty of fit, read-out: Kd^298K(glucose)/mM

Substance | effect of glucose binding on fluorescence ([1]; 488/580 ratio) | Response Intensity^c [1] | Response Shape^b [1] | Kd [2, 9] [mM] | Kd [3, 10] [mM] | Kd [3, 11] [mM] | Kd [4, 12] [mM] | Kd [4, 13] [mM] | Kd [5] [mM] | Tm/K [6] [K] | Kd [7, 14] [mM] | Kd ([2]; 37° C. (310K), fit of equation 18, read-out: Kd, glucose binding isotherm) [mM] | Kd ([8]; read-out: Ca^2+ affinity in the native state at a single site) [µM] | Kd ([8]; read-out: calculated Kd for Ca2+, single folded state site) [µM] | Kd ([8]; read-out: calculated Kd for Ca2+, single, medium-affinity denatured state) [µM] | Kd ([8]; read-out: calculated Kd for Ca2+, two, low-affinity denatured states) [µM] | apoTm ([6]; apo-protein, two-state fit) [K] | ΔapoHu ([6]; apo-protein, two-state fit) [kcal/mol] | decrease in the affinity for glucose compared to the wild-type protein [7] | Kd ([7]; 25° C., read-out: glucose constant) [mM]
A155N: GGBP 183C acrylodan conjugate with mutation A155N | increases the 488/580 ratio | — | d | ~13 | 4.5 | 6.6 | 0.14 | 0.23 | 7.5 ± 1 | 320 | 5.9 ± 1 |  |  |  |  |  |  |  |  | 
E149K: GGBP 183C acrylodan conjugate with mutation E149K |  | — | d | ~0.5 | 34 | 27 | 1.5 | 1.2 | 40.2 ± 1.3 | 321 | 1.44 ± 0.04 |  |  |  |  |  |  |  |  | 
E149Q: GGBP 183C acrylodan conjugate with mutation E149Q |  | — | d | ~0.5 | 2.3 | 2.1 | 0.6 | 0.43 | 10.8 ± 0.4 | 322 | 0.46 ± 0.01 |  |  |  |  |  |  |  |  | 
E149S: GGBP 183C acrylodan conjugate with mutation E149S |  | — | d | ~0.5 | 6.8 | 5.4 | 0.38 | 0.36 | 12.7 ± 15 | 320 | 0.34 ± 0.01 |  |  |  |  |  |  |  |  | 
GGBP183C⋅acrylodan: E. coli glucose-galactose binding protein W183C mutant conjugated to acrylodan; parent sensor |  | — | d |  | 31 | 24 | 6 | 4.4 |  |  |  | 6.58 ± 0.03 | ~0.01 | 0.0108 | 370 | 8800 | 322.2 | 197.3 | 10,000 fold | 4.21 ± 0.08
